From patent US8968703B2, “13C-MR detection using hyperpolarised 13C-fructose” (GE Healthcare Limited, priority 2009, dated 2015)

Columns and labels:
[1] = 11.7T NMR studies of hyperpolarized [2-13C]-fructose (T1, percent polarization); assay type: physicochemical; settings: for T1 sec (11.7T): C2 fructose carbon, mono-exponential fit of hyperpolarized signal decay; for % pol (corrected): percent polarization corrected for transfer time using T1 decay
Protocol: A 4.0M solution of 2-[^13C]-fructose (Isotec, Miamisburg, Ohio) in water containing 15 mM OX063 trityl radical (Oxford Instruments) was hyperpolarized on a Hypersense instrument (Oxford Instruments) as described by Ardenkjaer-Larsen et al (2003) Increase in signal-to-noise ratio of >10,000 times in liquid-state NMR. Proc. Natl. Acad. Sci. U.S.A. 100, 10158-10163. The frozen sample was dissolved in 1× phosphate buffered saline (PBS), with a resultant pH of 7.6, and transferred immediately to a 10 mm NMR tube.
NMR studies were performed on an 11.7T Varian INOVA spectrometer (125 MHz ^13C, Varian Instruments) using a 10 mm ^15N/[…]/^13C triple-tuned direct detect probe. Initially, a thermal spectrum was acquired for a natural abundance fructose sample in 1×PBS buffer at 37° C. (nt=9000, sw=30000, np=30000, TR=3.5 s, acq time=0.5 s) using an Ernst angle pulse (45 degrees). […] The C2 carbon resonances correspond to the isomeric distribution of the two ring forms (pyranose and furanose forms) of the fructose molecule.
For the acquisition of hyperpolarized ^13C spectra […] pulse hyperpolarized ^13C NMR spectra (1 average, spectral window=30000 Hz, number of points=30000, TR=3.5 s, acq time=0.5 s, total acq time=2 min 55 s) were acquired using a 5° pulse and proton decoupled using a waltz-16 decoupling scheme. Hyperpolarized studies were followed by acquisition of thermal data using nearly identical parameters, using a 90° tip angle and a repeat time of roughly four T1's (TR=76 s, nt=64). T1's were determined by performing a mono-exponential fit to the signal decay curve of the hyperpolarized compounds. Signal enhancement percent polarizations were calculated by comparing the hyperpolarized and thermal data sets and accounting for differences in tip angle and transients obtained. Solid state polarizations were calculated by correcting the enhancement for the transfer time from the polarizer using the T1 decay.

[2] = 3T T1 studies of hyperpolarized [2-13C]-fructose in solution; assay type: physicochemical; settings: for T1 sec (3T): C2 fructose carbon, solution spectra, monoexponential fit
Protocol: T1 studies were performed using a 3T GE Signa™ scanner (GE Healthcare. Waukesha, Wis.) equipped with the MNS (multinuclear spectroscopy) hardware package. Solution spectra were acquired using a 5° non localised pulse, TR=3 s and fit to a monoexponential. The RF coil used in these experiments was a dual-tuned ^1H-^13C coil with a quadrature ^13C channel and linear ^1H channel construction based on an earlier design and also used in ^13C-pyruvate mouse imaging studies. For animal studies, T2-weighted fast spin echo images were acquired prior to MRSI studies to denote anatomy and place voxels on the region of interest. In vivo MRSI studies were carried out using a compressed sensing double spin 3D MRSI acquisition scheme as previously published by Hu S et al. (2008) Compressed sensing for resolution enhancement of hyperpolarized 13C flyback 3D-MRSI. J Magn Reson 192, 258-264, with a TE=140 ms. TR=215 ms, FOV=8 cm×8 cm, and 16×8 resolution. 500 μl of 80 mM [2-^13C]-fructose was injected similar to described by Albers M J et al. (2008) Hyperpolarized 13C lactate, pyruvate and alanine: noninvasice biomarkers for prostate cancer detection and grading. Cancer Res. 68, 8607-8615, for [1-^13C] pyruvate in a transgenic model of prostate cancer (TRAMP). These injections were compared to the standard [1-^13C]-pyruvate injection for the same voxel in a tumor region of interest.

[3] = 11.7T NMR studies of hyperpolarized [2-13C]-fructose (T1, percent polarization); assay type: physicochemical; settings: pH ranges 5.9-7.8
hexokinase = experiment: NMR study of enzymatic conversion of hyperpolarized fructose to fructose-6-phosphate; assay type: biochemical; settings: 400 U hexokinase
Protocol: For NMR studies of the enzymatic conversion of Fructose to fructose-6-phosphate, hyperpolarized [2-^13C]-fructose was reacted with 400 U of hexokinase (Sigma Aldrich) in the presence of 15 mM ATP, 50 mM TRIS and 13 mM MgCl2. The labelling and mechanism for transport and metabolism is shown below (FIG. 1), though in this enzymatic study the transport element has been removed and the enzyme activity was independently measured. Peaks corresponding to fructose-6-phosphate were identified using a natural abundance carbon spectrum, using a similar set of experimental parameters.

Compound	T1 sec (11.7T) [1] [s]	% pol (corrected) [1] [%]	T1 sec (3T) [2] [s]	T1 dependence on pH [3]	Relaxation times (T1) ([1]; at 11.7 T) [s]	Percent polarization, average over isomers ([1]; averages for the isomers of fructose) [%]	Isomeric ratio of fructose pyranose to furanose in solution ([1]; in solution)	Relaxation times (T1) ([2]; at 3T) [s]	Time to conversion to fructose-6-phosphate after addition to hexokinase (hexokinase; 15 mM ATP, 50 mM TRIS, 13 mM MgCl2) [s]	Conversion of fructose to fructose-6-phosphate in thermal spectrum (hexokinase; thermal spectrum acquired over 85 minutes post DNP)
OC[C@H]1O[C@@](O)(CO)[C@@H](O)[C@@H]1O [A-fructofuranose]	15.5 ± 0.5	11.8 ± 2.0	13.4 ± 0.4							
O=[13C](CO)[C@@H](O)[C@H](O)[C@H](O)CO [fructose, [2-^13C]-fructose]				no T1 dependence on pH	15 to 16	~12	approximately 77/23	13 to 14	≤ 5	fully converted
OC[C@H]1O[C@](O)(CO)[C@@H](O)[C@@H]1O [β-fructofuranose]	15.8 ± 0.5	11.6 ± 2.5	13.4 ± 2.5							
OC[C@@]1(O)OC[C@@H](O)[C@@H](O)[C@@H]1O [β-fructopyranose]	16.3 ± 0.5	12.0 ± 2.2	14.5 ± 0.3							
